Like-named read-outs stand apart in the source and are kept apart here.

From US20080255169A1 (priority 2004, published 2008) come the findings set out here.

The test system of data set [1] is PC-3 cells. Nature of the data set: Cell invasion assay: invasion of PC-3 cells through Matrigel. As to conditions: Homo sapiens, 72 hours. Format: cell-based. From the text: The overexpression regulates cell adhesion and migration to and invasion through the extracellular matrix. By blocking the interaction between extracellular matrix components like collagen and α2β1 it is possible to block cancer cell migration and invasion in vitro. Prostate cancer cells (PC-3) expressing α2β1 endogenously were used to test the in vitro anticancer potential of the inhibitors of the present invention.
Invasion of PC-3 cells (CRL-1435, ATCC) through Matrigel was studied using BD Biocoat invasion inserts (BD Biosciences). Inserts were stored at −20° C. Before the experiments inserts were allowed to adjust to the room temperature. 500 μl of serum free media (Ham's F12K medium, 2 mM L-glutamine, 1.5 g/l sodium bicarbonate) was added into the inserts and allowed to rehydrate at 37° C. in cell incubator for two hours. The remaining media was aspirated. PC-3 cells were detached, pelleted and suspended into serum free media (50 000 cells/500 μl). 300 μl of cell suspension was added into the insert in the absence (control) or presence of the inhibitor according to the pre-sent invention. Inserts were placed on the 24-well plates; each well containing 700 μl of cell culture media with 3% of fetal bovine serum as chemo-attractant. Cells were allowed to invade for 72 hours at 37° C. in cell incubator. Inserts were washed with 700 μl PBS, and fixed with 4% paraformaldehyde for 10 minutes. Paraformaldehyde was aspirated and cells were washed with 700 μl of PBS and inserts were stained by incubation with hematoxylin for 1 minute. The stain was removed by washing the inserts with 700 μl of PBS. Inserts were allowed to dry. Fixed invaded cells were calculated under the microscope. Invasion % was calculated as a comparison to the control.
Cell invasion assay is used as an in vitro cancer metastatis model. […] Some structures inhibit invasion even with submicromolar concentrations. […] In FIG. 2, the dose response of compound 161 in invasion assay is shown. Compound 161 gave the best EC50 value (0.3 μM) in invasion assay. Invasion assay was done with human prostata cancer cell line, PC-3.

For data set [2], the target named is α2β1 integrin (Homo sapiens, UniProt P05556+P17301). The data set can be described thus: Cell adhesion assay. The data set is classed as cell-based. As to conditions: for Emax: read-out: Emax in cell adhesion assay.
For data set [3], the target named is α2β1 integrin (Homo sapiens, UniProt P17301). Nature of the data set: Cell adhesion assay. The data set is classed as cell-based.
Setting [4] is: read-out: EC50 in invasion assay.
Setting [5] is: read-out: EC50 in cell adhesion assay.

Sequence of α2β1 integrin (Homo sapiens, UniProt P05556+P17301) (P17301 30-1181): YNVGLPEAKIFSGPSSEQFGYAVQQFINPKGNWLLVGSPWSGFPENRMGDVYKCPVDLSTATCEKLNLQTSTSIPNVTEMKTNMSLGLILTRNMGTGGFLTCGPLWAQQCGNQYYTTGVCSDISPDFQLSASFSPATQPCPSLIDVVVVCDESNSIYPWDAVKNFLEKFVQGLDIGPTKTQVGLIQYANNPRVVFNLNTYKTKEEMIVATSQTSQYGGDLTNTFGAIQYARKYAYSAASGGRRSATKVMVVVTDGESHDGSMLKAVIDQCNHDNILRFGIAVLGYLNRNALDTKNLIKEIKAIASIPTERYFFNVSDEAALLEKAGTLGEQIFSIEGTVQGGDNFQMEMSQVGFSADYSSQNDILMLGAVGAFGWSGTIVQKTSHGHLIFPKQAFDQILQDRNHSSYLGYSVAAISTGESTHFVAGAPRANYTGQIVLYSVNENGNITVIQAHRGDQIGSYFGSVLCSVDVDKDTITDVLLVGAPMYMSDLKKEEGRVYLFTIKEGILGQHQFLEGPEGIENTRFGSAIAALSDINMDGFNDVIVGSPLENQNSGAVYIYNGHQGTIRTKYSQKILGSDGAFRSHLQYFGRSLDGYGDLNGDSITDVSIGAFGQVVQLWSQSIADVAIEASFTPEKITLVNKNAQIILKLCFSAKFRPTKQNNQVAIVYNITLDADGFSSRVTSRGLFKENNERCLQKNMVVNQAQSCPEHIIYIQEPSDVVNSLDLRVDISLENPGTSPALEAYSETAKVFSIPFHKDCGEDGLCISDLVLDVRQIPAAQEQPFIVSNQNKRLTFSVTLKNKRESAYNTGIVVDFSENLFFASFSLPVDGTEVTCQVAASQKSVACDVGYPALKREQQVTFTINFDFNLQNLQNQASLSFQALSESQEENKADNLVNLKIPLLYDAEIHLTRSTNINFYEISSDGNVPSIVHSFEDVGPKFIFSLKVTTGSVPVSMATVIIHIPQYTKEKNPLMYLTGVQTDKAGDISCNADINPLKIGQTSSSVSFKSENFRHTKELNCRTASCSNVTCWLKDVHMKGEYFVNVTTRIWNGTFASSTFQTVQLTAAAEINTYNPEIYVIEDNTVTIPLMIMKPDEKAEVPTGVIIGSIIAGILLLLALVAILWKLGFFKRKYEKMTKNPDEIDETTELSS
Sequence of α2β1 integrin (Homo sapiens, UniProt P05556+P17301) (P05556 21-798 partner): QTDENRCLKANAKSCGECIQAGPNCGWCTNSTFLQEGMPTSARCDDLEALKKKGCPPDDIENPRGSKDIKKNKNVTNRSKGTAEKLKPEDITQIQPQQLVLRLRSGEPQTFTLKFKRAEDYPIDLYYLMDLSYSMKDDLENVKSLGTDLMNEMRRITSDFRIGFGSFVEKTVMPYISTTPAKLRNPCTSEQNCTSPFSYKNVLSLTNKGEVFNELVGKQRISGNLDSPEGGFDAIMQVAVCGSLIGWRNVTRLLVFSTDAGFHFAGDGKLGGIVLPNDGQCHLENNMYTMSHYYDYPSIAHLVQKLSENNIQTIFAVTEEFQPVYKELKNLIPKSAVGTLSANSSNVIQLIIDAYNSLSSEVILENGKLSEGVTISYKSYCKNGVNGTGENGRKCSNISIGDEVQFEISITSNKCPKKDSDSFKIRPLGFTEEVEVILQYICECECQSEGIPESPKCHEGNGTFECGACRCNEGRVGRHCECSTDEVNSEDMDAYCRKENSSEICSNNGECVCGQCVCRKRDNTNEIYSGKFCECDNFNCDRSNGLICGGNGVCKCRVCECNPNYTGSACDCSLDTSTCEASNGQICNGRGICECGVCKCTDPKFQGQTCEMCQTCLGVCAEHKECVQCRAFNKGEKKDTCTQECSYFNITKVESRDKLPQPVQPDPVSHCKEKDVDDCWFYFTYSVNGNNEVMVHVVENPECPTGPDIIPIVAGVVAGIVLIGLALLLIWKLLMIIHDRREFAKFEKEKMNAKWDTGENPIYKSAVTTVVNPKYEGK
Sequence of α2β1 integrin (Homo sapiens, UniProt P17301) (P17301 30-1181): as the sequence (P17301 30-1181) above
Sequence of α2β1 integrin (Homo sapiens, UniProt P17301) (P05556 21-798 partner): as the sequence (P05556 21-798 partner) above

Regarding `Cn1ccc2cc(NS(=O)(=O)c3cccc(-c4ccc(F)cc4)c3)ccc21` [Compound 285, 4′-fluoro-biphenyl-3-sulfonic acid (1-methyl-1H-indol-5-yl)-amide], the EC50 in data set [1] (setting [4]) is at most 1 µM; in data set [2] (setting [5]), 20 µM. The Emax at 50 µM in data set [2] was 60%.

For the molecule `O=S(=O)(Nc1ccc2cc[nH]c2c1)c1ccc(Cl)cc1Cl` [Compound 161, 2,4-dichloro-N-(1H-indol-6-yl)-benzenesulfonamide], the EC50 is 0.3 µM in data set [1] (dose response FIG. 2, read-out: EC50 value in invasion assay); at most 1 µM in data set [1] (setting [4]); 34 µM in data set [2] (setting [5]). Moreover, the Emax in data set [2] (concentration not given) is 82%.

The molecule `CN(C)c1ccc(NS(=O)(=O)c2cccc(-c3ccc(F)cc3)c2)cc1` [Compound 119, N-[4-(dimethylamino)phenyl]-4′-fluoro-1,1′-biphenyl-3-sulphonamide] yielded a melting point of 158 to 160 °C. Further, in data set [2] (concentration not given), the Emax came to 70%. For the same molecule, the EC50 in data set [2] (setting [5]) is 3 µM.

In the case of `Cc1cc(C)nc(Nc2ccc(NS(=O)(=O)c3cccc(Br)c3)cc2)n1` [Compound 183], the EC50 in data set [1] (setting [4]) was at most 1 µM; in data set [2] (setting [5]) it was 28 µM. Moreover, the maximal response (Emax) in data set [2] (concentration not given) worked out at 81%.

As for `Cc1cc2cc(N(C)S(=O)(=O)c3ccc(Cl)cc3Cl)ccc2n1C` [Compound 242, 2,4-dichloro-N-(1,2-dimethyl-1H-indol-5-yl)-N-methyl-benzenesulfonamide], the figures for the EC50 in data set [1] (setting [4]) and in data set [2] (setting [5]) were at most 1 µM and 6 µM, respectively. Further, in data set [2] (concentration not given), the Emax was 70%.

As to `Cc1cc(F)ccc1-c1cccc(S(=O)(=O)Nc2ccc(N(C)C)cc2)c1` [Compound 222, N-[4-(dimethylamino)phenyl]-4′-fluoro-2′-methyl-1,1′-biphenyl-3-sulfonamide], the results for the EC50 in data set [1] (setting [4]) and in data set [2] (setting [5]) were at most 1 µM and 15 µM, respectively. Also, the Emax in data set [2] (concentration not given) was 66%.

As for `COc1ccc(-c2cnn(-c3ccc(NS(=O)(=O)c4ccc(Cl)cc4)cc3)c2)cc1` [Compound 176], the values for the EC50 in data set [1] (setting [4]) and in data set [2] (setting [5]) were at most 1 µM and 17 µM, respectively. The maximal effect (Emax) at 50 µM in data set [2] turned out to be 59%.

For `Cc1cc2cc(NS(=O)(=O)c3ccc4oc(=O)ccc4c3)ccc2[nH]1` [Compound 234], the Emax in data set [2] (concentration not given) was determined as 85%. Also, the EC50 in data set [2] (setting [5]) came to 35 µM.

As for `O=S(=O)(Nc1ccc(-n2cccc2)cc1)c1ccc(Cl)cc1Cl` [Compound 163, 2,4-dichloro-N-(4-pyrrol-1-yl-phenyl)-benzenesulfonamide], the maximum response (Emax) at 50 µM in data set [2] came to 66%. Besides, the EC50 in data set [2] (setting [5]) turned out to be 32 µM.

Regarding `O=S(=O)(Nc1ccc(-n2ccnc2)cc1)c1cccc(-c2ccc(F)cc2)c1` [Compound 300], the Emax in data set [2] (concentration not given) stood at 50%. Moreover, the EC50 in data set [2] (setting [5]) was determined as 45 µM.

`Cc1cc2cc(NS(=O)(=O)c3cccc(Br)c3)ccc2[nH]1` [Compound 197, 3-bromo-N-(2-methyl-1H-indol-5-yl)-benzenesulfonamide]: the Emax in data set [2] (concentration not given) was found to be 74%.

Turning to `Cc1cc(C)n(-c2ccc(NS(=O)(=O)c3cccc(-c4ccc(F)cc4)c3)cc2)n1` [Compound 298], the EC50 is at most 1 µM in data set [1] (setting [4]) and 33 µM in data set [2] (setting [5]). Further, the Emax in data set [2] (concentration not given) came to 79%.

In the case of `CN(C)c1ccc(N(C)S(=O)(=O)c2cccc(Br)c2)cc1` [Compound 281], the EC50 in data set [1] (setting [4]) was at most 1 µM; in data set [2] (setting [5]), 47 µM. The Emax in data set [2] (concentration not given) amounted to 78%.

Turning to `CC(C)(C)c1cc2cc(NS(=O)(=O)c3cccc(-c4ccc(F)cc4)c3)ccc2[nH]1` [Compound 291], in data set [2] (concentration not given), the Emax is 50%. In addition, the concentration giving a half-maximal response (EC50) in data set [2] (setting [5]) amounted to 32 µM.

As for `Cn1ccc2ccc(NS(=O)(=O)c3cccc(-c4ccc(F)cc4)c3)cc21` [Compound 284, 4′-fluoro-biphenyl-3-sulfonic acid (1-methyl-1H-indol-6-yl)-amide], the Emax in data set [2] (concentration not given) stood at 69%. In addition, the EC50 in data set [2] (setting [5]) was about 30 µM.

As to `COc1ccc(-c2cccc(S(=O)(=O)Nc3ccc(N(C)C)cc3)c2)cc1OC` [Compound 102, 3′,4′-dimethoxy-biphenyl-3-sulphonic acid (4-dimethylamino-phenyl)-amide], the melting point is 43 °C. Also, the EC50 in data set [2] (setting [5]) was 13 µM. In data set [3] (concentration not given), the “Emax in cell adhesion assay” value is 65%.

Take `Cc1cc(C)nc(N(C)c2ccc(N(C)S(=O)(=O)c3ccc(Cl)cc3Cl)cc2)n1` [Compound 302]: in data set [2] (concentration not given), the maximum response (Emax) came to 57%. In addition, the EC50 in data set [2] (setting [5]) amounted to 24 µM.

On to `O=S(=O)(Nc1ccc2[nH]ccc2c1)c1ccc(Cl)cc1Cl` [Compound 134, 2,4-dichloro-N-(1H-indol-5-yl)-benzenesulfonamide], for which the Emax in data set [2] (concentration not given) came out at 40%. In addition, the EC50 in data set [2] (setting [5]) was 10 µM.

With `Cc1cc2c(n1-c1ccc(NS(=O)(=O)c3ccc(-c4cnco4)s3)cc1)CC(C)(C)CC2=O` [Compound 258], the Emax in data set [2] (concentration not given) amounted to 66%. Also, the EC50 in data set [2] (setting [5]) was 40 µM.

With `CN(C)c1ccc(NS(=O)(=O)c2cccc(-c3cccc(C#N)c3)c2)cc1` [Compound 275], the Emax in data set [2] (concentration not given) amounted to 57%. In addition, the EC50 in data set [2] (setting [5]) amounted to 26 µM.

For the molecule `CN(C)c1ccc(N(C)S(=O)(=O)c2ccc(Cl)cc2Cl)cc1` [Compound 223, 2,4-dichloro-N-[4-(dimethylamino)phenyl]-N-methyl benzenesulfonamide], the Emax in data set [2] (concentration not given) was 82%. For the same molecule, the EC50 in data set [2] (setting [5]) stood at 13 µM.

Regarding `O=S(=O)(Nc1ccc(-n2cnc(Cl)c2Cl)cc1)c1ccc2ccccc2c1` [Compound 171], the Emax in data set [2] (concentration not given) worked out at 79%. Further, the EC50 in data set [2] (setting [5]) is 20 µM.

In the case of `CN(C)c1ccc(NS(=O)(=O)c2cc(Br)c(F)cc2F)cc1` [Compound 192, 5-bromo-N-[4-(dimethylamino)phenyl]-2,4-difluoro benzene sulfonamide], the Emax in data set [2] (concentration not given) was 75%. Also, in data set [2] (setting [5]), the EC50 amounted to 39 µM.

Regarding `CC(=O)c1ccc(-c2cccc(S(=O)(=O)Nc3ccc(N(C)C)cc3)c2)s1` [Compound 239, 3-(5-acetylthien-2-yl)-N-[4-(dimethylamino)phenyl]benzenesulfonamide], the EC50 was at most 1 µM in data set [1] (setting [4]) and 24 µM in data set [2] (setting [5]). The Emax at 50 µM in data set [2] was 64%.

In the case of `Cc1cc2cc(NS(=O)(=O)c3ccc(Cl)cc3Cl)ccc2[nH]1` [Compound 131, 2,4-dichloro-N-(2-methyl-1H-indol-5-yl)-benzenesulfonamide], the EC50 is at most 1 µM in data set [1] (setting [4]) and 25 µM in data set [2] (setting [5]). In addition, the Emax in data set [2] (concentration not given) turned out to be 58%.

On to `CN(C)c1ccc(NS(=O)(=O)c2ccc(-c3ccc(F)cc3)s2)cc1` [Compound 306], for which the maximum response (Emax) at 50 µM in data set [2] came out at 67%. Besides, the EC50 in data set [2] (setting [5]) is 24 µM.

Regarding `CN(C)c1ccc(NS(=O)(=O)c2cccc(-c3ccc(F)c(F)c3)c2)cc1` [Compound 263], the EC50 in data set [2] (EC50 in cell adhesion assay) is 26 µM. The maximal effect (Emax) in data set [2] turned out to be 88%.

Consider `Cc1cc(C)nc(N(C)c2ccc(NS(=O)(=O)c3ccc(Cl)cc3Cl)cc2)n1` [Compound 50, 2,4-dichloro-N-{4-[(4,6-dimethylpyrimidin-2-yl)(methyl)amino]phenyl}benzenesulphonamide], for which the maximum response (Emax) in data set [2] (concentration not given) stood at 60%. The EC50 in data set [2] (setting [5]) worked out at 17 µM.

Regarding `O=S(=O)(Nc1ccc2ncsc2c1)c1cccc(Br)c1` [Compound 139, N-benzolthiazol-6-yl-3-bromo-benzenesulfonamide], the Emax in data set [2] (concentration not given) turned out to be 75%. The EC50 in data set [2] (setting [5]) came to 46 µM.

In data set [2], `Cc1[nH]c2ccc(NS(=O)(=O)c3ccc(Cl)cc3Cl)cc2c1C` [Compound 210] had an Emax at 50 µM of 80%. Further, the “EC50 in cell adhesion assay” value in data set [3] is on record as “dd could not be detected”.

As to `CN(C)c1ccc(NS(=O)(=O)c2cccc(-c3cccc(F)c3)c2)cc1` [Compound 203], the Emax in data set [2] (concentration not given) came to 86%. Also, in data set [2] (setting [5]), the EC50 worked out at 19 µM.

Usually EC50 stands for the concentration at which the effect is half-maximal. As a reminder, the Emax is the maximal effect, on the per cent scale that the assay sets. For orientation: melting point means the temperature of the solid-liquid transition.
